Experimental data: US10118947B2, “Modulation of structured polypeptide specificity” (BICYCLE THERAPEUTICS LIMITED, priority 2013, dated 2018)
pKd, pKi: −log10 of the molar value. Where two headings read alike, the source gives them in different places. Numbered stars: 1 amine (or outer) side, 2 acyl side, 3 side chain; on linkers, the order of the positions; unused ones are H or OH. Bridge positions count the residues as written; N and C are the ends. Square brackets hold non-standard residues; d marks the D form. Peptide text beside a SMILES is read from it. TBMB = c1c(C[*:1])cc(C[*:3])cc1C[*:2]; hArg = N=C(N)NCCCC[C@H](N)C(=O)O; Chg = N[C@H](C(=O)O)C1CCCCC1; Phg = N[C@H](C(=O)O)c1ccccc1; Tle = CC(C)(C)[C@H](N)C(=O)O; Aze = O=C(O)[C@@H]1CCN1

Key:
human plasma Kallikrein = target: T1, human plasma Kallikrein (Homo sapiens, UniProt P03952); experiment: Functional enzyme inhibition assay with fluorogenic substrate Z-PheArg-AMC, human plasma Kallikrein; assay type: biochemical
T1 construct: purchased Stratech, UK
T1 sequence (P03952 20-638): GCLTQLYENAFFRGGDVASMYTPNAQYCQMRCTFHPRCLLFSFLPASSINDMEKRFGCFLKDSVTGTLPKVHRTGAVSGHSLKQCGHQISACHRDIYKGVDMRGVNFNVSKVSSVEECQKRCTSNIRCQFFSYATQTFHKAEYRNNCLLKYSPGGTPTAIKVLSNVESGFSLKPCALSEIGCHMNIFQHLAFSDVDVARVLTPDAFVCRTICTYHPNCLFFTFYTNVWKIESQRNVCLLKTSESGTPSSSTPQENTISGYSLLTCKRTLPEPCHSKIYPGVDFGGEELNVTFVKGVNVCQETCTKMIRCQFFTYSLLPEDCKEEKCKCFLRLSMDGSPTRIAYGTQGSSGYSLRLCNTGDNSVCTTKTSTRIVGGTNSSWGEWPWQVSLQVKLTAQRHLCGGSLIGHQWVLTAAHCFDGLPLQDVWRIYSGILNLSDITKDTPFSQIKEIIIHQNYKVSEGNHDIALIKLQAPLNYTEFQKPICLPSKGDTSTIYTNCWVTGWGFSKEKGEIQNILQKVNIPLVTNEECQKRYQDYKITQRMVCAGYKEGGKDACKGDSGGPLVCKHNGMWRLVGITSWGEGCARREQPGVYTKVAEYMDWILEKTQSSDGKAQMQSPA
In short: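 Human plasma kallikrein at 26.5 pM was preincubated 15 minutes with test peptide in Tris/NaCl/MgCl2/CaCl2/BSA buffer pH7.4 at 25° C, then Z-PheArg-AMC added to 100 μM final in 4% DMSO.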

rat plasma Kallikrein = target: T2, rat plasma Kallikrein (Rattus norvegicus, UniProt P14272); experiment: Functional enzyme inhibition assay with fluorogenic substrate Z-PheArg-AMC, rat plasma Kallikrein; assay type: biochemical
T2 construct: polyhistidine tag (N, cleaved yes); proTEV cleavage site (pro-peptide linker) (N, cleaved yes); made in house; host or cells: HEK-293 (suspension-adapted)
T2 sequence (P14272 391-638 limits assumed): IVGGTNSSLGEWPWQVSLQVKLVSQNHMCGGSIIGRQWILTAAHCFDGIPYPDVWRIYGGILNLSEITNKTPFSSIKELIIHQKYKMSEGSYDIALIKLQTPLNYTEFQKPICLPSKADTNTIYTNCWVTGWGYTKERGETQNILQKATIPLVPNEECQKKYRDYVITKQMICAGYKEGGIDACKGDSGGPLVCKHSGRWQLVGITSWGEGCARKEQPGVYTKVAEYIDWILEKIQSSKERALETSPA
Method: Functional enzyme assays were conducted in 10 mM Tris HCl, 150 mM NaCl, 10 mM MgCl2, 1 mM CaCl2) and 1 mg/mL BSA (all Sigma UK) pH7.4 at 25° C. in solid black 96 well plates. Briefly 26.5 pM human plasma Kallikrein (purchased from Stratech, UK) or 500 pM rat plasma Kallikrein (expressed and purified in house) were incubated in the absence or presence of increasing concentrations of test peptide for 15 minutes before addition of the fluorogenic substrate Z-PheArg-AMC (Enzo Lifesciences UK) to a final assay concentration of 100 μM in 4% DMSO. Release of AMC was measured using a Pherastar FS (BMG Labtech), excitation 360 nm, emission 460 nm. The rate of the linear phase of the reaction, typically 5 to 45 minutes, was calculated in MARS data analysis software (BMG labtech). The rate was then used to calculate the IC50 and Ki in Prism (GraphPad). A four parameter inhibition non-linear regression equation was used to calculate the IC50.
Peptides were dissolved as the TFA-salts in their powder form, and stock solutions were usually prepared in water. All solutions were centrifuged and filtered ([…] syringe filters) prior absorption measurement at 280 nm. Extinction coefficients were calculated based on the Trp/Tyr content of the peptide, and that of TMB (the TMB core, when contained in a peptide, has an ε of ˜300 M^−1cm^−1). For peptides containing non-natural amino acids with suspected chromophoric properties (i.e. NorHar, 4PhenylPro, 3Pal, 4Pal, Tic, 4GuanPhe, 4,4-BPAI, 3,3-DPA, 1NAI, 2NAI, 4BenzylPro, Ind) concentrations were determined by weighing the powder and dissolving the peptide in a defined quantity of water.

[1] = Plasma stability / fragment profiling Method #2 (MALDI-TOF, 95% plasma), human plasma; assay type: in vitro ADME; conditions: for degradation / fragments in human plasma (in words): running text and figure legends
Method: To obtain stability data more rapidly, peptides were also assessed in 95% plasma. Here, PBS was omitted, and a 1 mM peptide stock (in DMSO) was directly diluted into plasma (i.e. 2.5 uL stock into 47.5 uL plasma), giving a final concentration of 50 uM. 5 uL samples were taken at appropriate time points and frozen at −80 deg C. For analysis, the samples were defrosted, mixed with 15 uL of 1:1 acetonitrile:methanol, and centrifuged at 13 k for 5 min. 5 uL of the peptide-containing supernatant was aspirated and mixed with 30 mM ammonium bicarbonate in a 1:1 mixture of acetonitrile:H2O. 1 uL of this was then spotted on the MALDI plate and analysed as described above. As above, it should be noted that this is a qualitative assay serves to detect relative changes in plasma stability.
Ac-06-34-18(TMB)-NH2 Phe2 Tyr4 (referred to as wild type peptide) was subsequently subjected to human plasma, and analysed for fragments to appear over time. This was compared to the degradation profile observed in human plasma using the NMe-Arg5 derivative of 06-34-18 (FIGS. 18a and 18b). Fragmentation was determined according to Method #2.

[2] = Intravenous pharmacokinetics in Sprague Dawley rats; assay type: in vivo; conditions: rat
Method: Peptides were applied as intravenous boli in PBS-buffered solution at 1.02 mg/mL (containing 2.9% DMSO) at 5.2 mg/kg to Sprague Dawley rats, and serial blood samples were taken from each animal via temporary indwelling tall vein cannulae at 5, 10, 20, 30, 60, 120, and 240 minutes post dose, and transferred to EDTA tubes for plasma generation. Data was acquired for peptide “all D Ac-06-34-18” from 3 rats, for “Ac-(06-34-18) Phe2 Aze3 Tyr4 HArg5 Ala(ψCH2NH)6” from two rats, and for “Ac-(06-34-18) Phe2 Aze3 Tyr4 HArg5 D-Asp9” from two rats.
Plasma samples were then treated with 3 volumes of a 1:1 mixture of acetonitrile and methanol, precipitated proteins were removed by centrifugation, and the supernatant was analysed by UPLC-MS/MS.
Quantification for peptide content in the samples was by reference to a calibration line prepared in control rat plasma. Pharmacokinetic parameters were determined by non-compartmental analysis using the software package PK Solutions 2.0 from Summit Research Services.

[3] = Table 26b, loop 1 and loop 2 modified derivatives, read-out: Ki (nM) (human kallikrein)
[4] = Table 26b, loop 1 and loop 2 modified derivatives
[5] = Table 26a, loop2 stability enhanced candidates
[6] = Table 24a, residue 6 modification in the context of Ac-(06-34-18) Phe2 Tyr4, read-out: Ki (nM) Ac-(06-34-18) Phe2 Tyr4

Ki (human plasma Kallikrein; [3])	Ki (rat plasma Kallikrein; [4])	Ki (rat plasma Kallikrein; [5])	Ki (human plasma Kallikrein; [6])	Compound	other results
1.65 nM	23 nM	–	–	CC(=O)N[C@H]1CSCc2cc3cc(c2)CSC[C@H](NC(=O)[C@H](CCCCNC(=N)N)NC(=O)[C@H](Cc2ccc(O)cc2)NC(=O)[C@@H]2CCN2C(=O)[C@H](Cc2ccccc2)NC(=O)[C@H](CO)NC1=O)C(=O)N[C@@H](CC(C)C)C(=O)N[C@@H](Cc1c[nH]cn1)C(=O)N[C@@H](CCC(=O)O)C(=O)N[C@@H](CC(=O)O)C(=O)N[C@@H](CC(C)C)C(=O)N[C@H](C(N)=O)CSC3 [Ac-(06-34-18) Phe2 Aze3 Tyr4 HArg5 Glu8] (Ac-CSF[Aze]Y[hArg]CLHEDLC-NH2; linker 1-7-13 via TBMB)	–
0.32 nM	12 nM	–	–	CC(=O)N[C@H]1CSCc2cc3cc(c2)CSC[C@H](NC(=O)[C@H](CCCCNC(=N)N)NC(=O)[C@H](Cc2ccc(O)cc2)NC(=O)[C@@H]2CCN2C(=O)[C@H](Cc2ccccc2)NC(=O)[C@H](CO)NC1=O)C(=O)N[C@@H](c1ccccc1)C(=O)N[C@@H](Cc1c[nH]cn1)C(=O)N[C@@H](CCC(N)=O)C(=O)N[C@@H](CC(=O)O)C(=O)N[C@@H](CC(C)C)C(=O)N[C@H](C(N)=O)CSC3 [Ac-(06-34-18) Phe2 Aze3 Tyr4 HArg5 Phg6] (Ac-CSF[Aze]Y[hArg]C[Phg]HQDLC-NH2; linker 1-7-13 via TBMB)	–
1.91 nM	193 nM	–	–	CC(=O)N[C@H]1CSCc2cc3cc(c2)CSC[C@H](NC(=O)[C@H](CCCNC(=N)N)NC(=O)[C@H](Cc2ccc(O)cc2)NC(=O)[C@@H]2CCN2C(=O)[C@H](Cc2ccccc2)NC(=O)[C@H](CO)NC1=O)C(=O)N[C@@H](C(C)(C)C)C(=O)N[C@@H](Cc1c[nH]cn1)C(=O)N[C@@H](CCC(N)=O)C(=O)N[C@@H](CC(=O)O)C(=O)N[C@@H](CC(C)C)C(=O)N[C@H](C(N)=O)CSC3 [Ac-(06-34-18) Phe2 Aze3 Tyr4 tBuGly6] (Ac-CSF[Aze]YRC[Tle]HQDLC-NH2; linker 1-7-13 via TBMB)	–
–	–	43.6 nM	–	CC(=O)N[C@H]1CSCc2cc3cc(c2)CSC[C@H](NC(=O)[C@H](CCCNC(=N)N)NC(=O)[C@H](Cc2ccc(O)cc2)NC(=O)[C@@H]2CCCN2C(=O)[C@H](Cc2ccccc2)NC(=O)[C@H](CO)NC1=O)C(=O)N[C@@H](C)CN[C@@H](Cc1c[nH]cn1)C(=O)N[C@@H](CCC(N)=O)C(=O)N[C@@H](CC(=O)O)C(=O)N[C@@H](CC(C)C)C(=O)N[C@H](C(N)=O)CSC3 [Ac-(06-34-18) Phe2 Tyr4 Ala(ψCH2NH)6]	pKd (human plasma Kallikrein): 8.82; F (Kivar/KiWT) (human plasma Kallikrein; Table 25b, fold change of Ki of variant compared to WT): 4; pKi (human plasma Kallikrein; Table 25b, peptide backbone modifications in Loop2, human plasma kallikrein, read-out: Ki): 8.83; degradation / fragments in human plasma (in words) [1]: significantly enhanced stability in loop2
–	–	9.09 nM	0.5 nM	CC(=O)N[C@H]1CSCc2cc3cc(c2)CSC[C@H](NC(=O)[C@H](CCCNC(=N)N)NC(=O)[C@H](Cc2ccc(O)cc2)NC(=O)[C@@H]2CCCN2C(=O)[C@H](Cc2ccccc2)NC(=O)[C@H](CO)NC1=O)C(=O)N[C@@H](C1CCCCC1)C(=O)N[C@@H](Cc1c[nH]cn1)C(=O)N[C@@H](CCC(N)=O)C(=O)N[C@@H](CC(=O)O)C(=O)N[C@@H](CC(C)C)C(=O)N[C@H](C(N)=O)CSC3 [Ac-(06-34-18) Phe2 Tyr4 Chg6] (Ac-CSFPYRC[Chg]HQDLC-NH2; linker 1-7-13 via TBMB)	–
–	–	32 nM	–	CC(=O)N[C@H]1CSCc2cc3cc(c2)CSC[C@H](NC(=O)[C@H](CCCNC(=N)N)NC(=O)[C@H](Cc2ccc(O)cc2)NC(=O)[C@@H]2CCCN2C(=O)[C@H](Cc2ccccc2)NC(=O)[C@H](CO)NC1=O)C(=O)N[C@@H](CC(C)C)C(=O)N[C@@H](Cc1c[nH]cn1)C(=O)N[C@@H](CCC(N)=O)C(=O)N[C@H](CC(=O)O)C(=O)N[C@@H](CC(C)C)C(=O)N[C@H](C(N)=O)CSC3 [Ac-(06-34-18) Phe2 Tyr4 D-Asp9] (Ac-CSFPYRCLHQ[dD]LC-NH2; linker 1-7-13 via TBMB)	reduction in potency/affinity compared to wildtype (human plasma Kallikrein): 9 fold; pKi (human plasma Kallikrein; Table 3b, D-amino acid scan in Loop2, read-out: Ki): 8.41; F (Kivar/KiWT) (human plasma Kallikrein; Table 3b, ratio of Ki to wild type): 9; pKi (human plasma Kallikrein; read-out: Ki / affinity to human Kallikrein): 8.40; Fragments (human plasma) ([1]; Table 3b, peptide fragments observed after incubation in human plasma): -R, -FPYR
–	–	7.23 nM	0.3 nM	CC(=O)N[C@H]1CSCc2cc3cc(c2)CSC[C@H](NC(=O)[C@H](CCCNC(=N)N)NC(=O)[C@H](Cc2ccc(O)cc2)NC(=O)[C@@H]2CCCN2C(=O)[C@H](Cc2ccccc2)NC(=O)[C@H](CO)NC1=O)C(=O)N[C@@H](c1ccccc1)C(=O)N[C@@H](Cc1c[nH]cn1)C(=O)N[C@@H](CCC(N)=O)C(=O)N[C@@H](CC(=O)O)C(=O)N[C@@H](CC(C)C)C(=O)N[C@H](C(N)=O)CSC3 [Ac-(06-34-18) Phe2 Tyr4 Phg6] (Ac-CSFPYRC[Phg]HQDLC-NH2; linker 1-7-13 via TBMB)	–
–	–	218 nM	3.76 nM	CC(=O)N[C@H]1CSCc2cc3cc(c2)CSC[C@H](NC(=O)[C@H](CCCNC(=N)N)NC(=O)[C@H](Cc2ccc(O)cc2)NC(=O)[C@@H]2CCCN2C(=O)[C@H](Cc2ccccc2)NC(=O)[C@H](CO)NC1=O)C(=O)N[C@@H](C(C)(C)C)C(=O)N[C@@H](Cc1c[nH]cn1)C(=O)N[C@@H](CCC(N)=O)C(=O)N[C@@H](CC(=O)O)C(=O)N[C@@H](CC(C)C)C(=O)N[C@H](C(N)=O)CSC3 [Ac-(06-34-18) Phe2 Tyr4 tBuGly6] (Ac-CSFPYRC[Tle]HQDLC-NH2; linker 1-7-13 via TBMB)	degradation / fragments in human plasma (in words) [1]: only removal of Arg5 in the first loop
–	–	–	–	CC(=O)N[C@@H]1CSCc2cc3cc(c2)CSC[C@@H](NC(=O)[C@@H](CCCNC(=N)N)NC(=O)[C@@H](C)NC(=O)[C@H]2CCCN2C(=O)[C@@H](Cc2c[nH]c4ccccc24)NC(=O)[C@@H](CO)NC1=O)C(=O)N[C@H](CC(C)C)C(=O)N[C@H](Cc1c[nH]cn1)C(=O)N[C@H](CCC(N)=O)C(=O)N[C@H](CC(=O)O)C(=O)N[C@H](CC(C)C)C(=O)N[C@@H](C(N)=O)CSC3 [All D 06-34-18, Ac-cswparclhqdlc-NH2(TMB), reference compound]	potency / binding to kallikrein (in words) (human plasma Kallikrein): lacks any potency; half-life ([2]; Sprague Dawley, in vivo, intravenous bolus 5.2 mg/kg, read-out: elimination half-life): 54 min; Clearance based on AUC0-∞ ([2]; intravenous): 4.5 mL/min/kg; Volume of distribution based on AUC0-∞ ([2]; intravenous): 0.3 L/kg
